Active and inactive are the calls of the source.
What was measured:
[1] = tested on: BJ; assay: cytotoxicity toward BJ-TERT fibroblasts, dose response, cell-based, RAS-independent, luminescence (AID 1933); format: functional; details: Homo sapiens
[2] = tested on: BJ; assay: cells; format: functional, cell-based; details: Homo sapiens
[3] = tested on: BJ; assay: cytotoxicity toward BJ-TERT-LT-ST fibroblasts, dose response, cell-based, RAS-independent, luminescence (AID 1935); format: functional; details: Homo sapiens;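 note: BJ fibroblasts immortalized with TERT plus LT and ST oncogenes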
[4] = cytotoxicity toward DRD oncogenic fibroblasts, dose response, cell-based, non-viral oncogenic, luminescence (AID 1934); format: functional; details: Homo sapiens
[5] = target: T1, Short transient receptor potential channel 4 (Mus musculus, UniProt Q9QUQ5); assay: mouse TRPC4 channel inhibitors, dose response, cell-based, HEK293 TRPC4/mu-opioid, Fluo-4 calcium (AID 434942); format: functional;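 note: potency of inhibitors blocking the TRPC4 calcium response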
T1 sequence (Q9QUQ5 whole entry): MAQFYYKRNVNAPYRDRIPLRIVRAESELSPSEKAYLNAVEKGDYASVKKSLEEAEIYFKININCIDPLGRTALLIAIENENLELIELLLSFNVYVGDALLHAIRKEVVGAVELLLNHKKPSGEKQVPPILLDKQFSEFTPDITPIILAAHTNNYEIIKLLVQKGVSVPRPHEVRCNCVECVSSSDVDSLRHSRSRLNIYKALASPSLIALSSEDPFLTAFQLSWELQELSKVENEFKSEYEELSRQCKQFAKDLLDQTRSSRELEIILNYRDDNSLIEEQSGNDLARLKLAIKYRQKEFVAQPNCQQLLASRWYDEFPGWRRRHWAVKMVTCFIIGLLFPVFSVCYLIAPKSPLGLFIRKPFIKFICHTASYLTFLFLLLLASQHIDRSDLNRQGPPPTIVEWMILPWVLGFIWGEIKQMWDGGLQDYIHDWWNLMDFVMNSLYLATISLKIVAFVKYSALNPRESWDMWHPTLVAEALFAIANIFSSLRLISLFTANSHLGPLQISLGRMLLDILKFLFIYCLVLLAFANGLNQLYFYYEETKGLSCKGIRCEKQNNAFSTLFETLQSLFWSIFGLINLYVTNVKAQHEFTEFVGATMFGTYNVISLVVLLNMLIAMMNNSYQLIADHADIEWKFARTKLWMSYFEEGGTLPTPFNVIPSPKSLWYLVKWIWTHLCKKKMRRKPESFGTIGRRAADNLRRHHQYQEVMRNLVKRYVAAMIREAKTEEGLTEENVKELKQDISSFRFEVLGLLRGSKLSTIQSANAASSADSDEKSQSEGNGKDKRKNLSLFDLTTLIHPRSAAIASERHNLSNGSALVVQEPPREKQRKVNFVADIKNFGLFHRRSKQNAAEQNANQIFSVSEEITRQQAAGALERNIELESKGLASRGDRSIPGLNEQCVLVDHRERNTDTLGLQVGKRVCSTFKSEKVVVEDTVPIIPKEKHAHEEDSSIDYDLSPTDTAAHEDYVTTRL

[6] = tested on: BJ; assay: cytotoxicity toward Ras-transformed BJeLR fibroblasts, dose response, cell-based, alamar blue fluorescence, cherrypicked samples (AID 2631); format: functional; details: Homo sapiens;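 note: confirmatory dose-response assay in RAS-dependent BJ fibroblasts engineered with TERT, LT and ST, with cytotoxicity read by fluorescence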
[7] = target: T2, Hexokinase-1 (Homo sapiens, UniProt P19367); assay: SAR analysis of small molecule inhibitors of hexokinase domain containing I (HKDC1) in the hexokinase 1 selectivity assay. [Related pubchem assays (depositor defined):AID493160, AID493190]; format: functional
T2 sequence (P19367 whole entry): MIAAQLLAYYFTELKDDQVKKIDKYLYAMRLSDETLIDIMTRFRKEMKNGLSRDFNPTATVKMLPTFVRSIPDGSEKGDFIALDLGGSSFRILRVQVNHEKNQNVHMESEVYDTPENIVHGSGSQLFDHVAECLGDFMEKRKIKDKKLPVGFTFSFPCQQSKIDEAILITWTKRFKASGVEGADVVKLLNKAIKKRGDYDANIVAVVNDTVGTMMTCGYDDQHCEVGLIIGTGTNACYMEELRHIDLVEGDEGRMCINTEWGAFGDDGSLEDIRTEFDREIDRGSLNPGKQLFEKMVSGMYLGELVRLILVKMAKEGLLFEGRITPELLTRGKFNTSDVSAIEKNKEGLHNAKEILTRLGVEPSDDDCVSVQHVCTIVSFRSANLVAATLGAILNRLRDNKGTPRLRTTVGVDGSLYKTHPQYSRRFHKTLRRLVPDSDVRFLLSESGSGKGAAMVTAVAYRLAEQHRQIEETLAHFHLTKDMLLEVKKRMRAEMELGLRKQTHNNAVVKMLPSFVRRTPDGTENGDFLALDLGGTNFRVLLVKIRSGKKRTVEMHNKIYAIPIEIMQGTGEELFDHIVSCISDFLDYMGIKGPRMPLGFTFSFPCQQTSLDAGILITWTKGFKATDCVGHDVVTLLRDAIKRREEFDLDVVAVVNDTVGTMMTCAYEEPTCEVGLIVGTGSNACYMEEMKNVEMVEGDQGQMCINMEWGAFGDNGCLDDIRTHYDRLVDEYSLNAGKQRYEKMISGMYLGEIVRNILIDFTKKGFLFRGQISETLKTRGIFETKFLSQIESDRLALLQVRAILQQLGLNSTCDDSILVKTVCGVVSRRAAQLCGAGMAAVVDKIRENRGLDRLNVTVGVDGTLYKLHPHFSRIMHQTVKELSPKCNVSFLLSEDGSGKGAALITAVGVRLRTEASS

[8] = target: T3, Hexokinase HKDC1 (Homo sapiens, UniProt Q2TB90); assay: SAR analysis of small molecule inhibitors of hexokinase domain containing I (HKDC1). [Related pubchem assays (depositor defined):AID493160, AID493190]; format: functional
T3 sequence (Q2TB90 whole entry): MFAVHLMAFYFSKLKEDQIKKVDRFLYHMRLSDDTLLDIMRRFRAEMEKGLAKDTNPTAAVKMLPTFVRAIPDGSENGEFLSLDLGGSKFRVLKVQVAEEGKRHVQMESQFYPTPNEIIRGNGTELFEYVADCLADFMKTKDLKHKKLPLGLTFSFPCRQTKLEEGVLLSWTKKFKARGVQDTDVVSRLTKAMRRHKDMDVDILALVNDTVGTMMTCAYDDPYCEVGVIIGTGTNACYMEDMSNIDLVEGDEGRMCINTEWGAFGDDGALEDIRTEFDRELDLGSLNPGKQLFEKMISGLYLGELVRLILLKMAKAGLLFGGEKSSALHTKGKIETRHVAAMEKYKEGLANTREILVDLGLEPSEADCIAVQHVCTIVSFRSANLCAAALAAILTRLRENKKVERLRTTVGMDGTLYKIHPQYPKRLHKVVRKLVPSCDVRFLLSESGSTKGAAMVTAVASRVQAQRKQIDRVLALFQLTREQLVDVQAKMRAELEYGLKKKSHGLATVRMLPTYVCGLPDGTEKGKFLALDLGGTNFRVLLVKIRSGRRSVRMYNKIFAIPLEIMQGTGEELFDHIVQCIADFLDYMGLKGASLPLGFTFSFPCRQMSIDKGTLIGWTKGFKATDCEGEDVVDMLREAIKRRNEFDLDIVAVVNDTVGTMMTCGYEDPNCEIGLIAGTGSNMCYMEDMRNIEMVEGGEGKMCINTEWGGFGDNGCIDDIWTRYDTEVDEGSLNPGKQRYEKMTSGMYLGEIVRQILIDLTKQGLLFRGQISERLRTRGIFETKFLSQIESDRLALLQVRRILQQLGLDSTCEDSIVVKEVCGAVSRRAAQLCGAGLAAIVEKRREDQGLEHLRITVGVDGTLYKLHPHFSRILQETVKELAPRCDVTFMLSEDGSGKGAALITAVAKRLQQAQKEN

[9] = tested on: HEK293; assay: cytotoxicity in HEK293T NF-kB-Luc cells, SAR follow-up, cytotoxicity control for NF-kB activator project, cell-based, resazurin fluorescence (AID 493251); format: functional; details: Homo sapiens
[10] = tested on: Jurkat; assay: SAR Analysis of small molecule inhibitors of T-cell specific antigen receptor-induced NF-kB activation in a Jurkat cell line using a luminescence assay - Set 2. [Related pubchem assays (depositor defined):AID435003, AID435012, AID465]; format: functional, cell-based; details: Homo sapiens
[11] = tested on: HEK293; assay: SAR Analysis of small molecule inhibitors of T-cell specific antigen receptor-induced NF-kB activation in a HEK-293T cell line using a luminescence assay - Set 2. [Related pubchem assays (depositor defined):AID435003, AID435012, AID489026]; format: functional, cell-based; details: Homo sapiens
[12] = target: T4, Acyl-homoserine lactone acylase PvdQ (Pseudomonas aeruginosa (strain LESB58), UniProt Q9I194); assay: P. aeruginosa PvdQ acylase inhibitors, dose response, biochemical, fluorescence, plate reader and imaging, cherry-picks (AID 493231)
T4 sequence (Q9I194 whole entry): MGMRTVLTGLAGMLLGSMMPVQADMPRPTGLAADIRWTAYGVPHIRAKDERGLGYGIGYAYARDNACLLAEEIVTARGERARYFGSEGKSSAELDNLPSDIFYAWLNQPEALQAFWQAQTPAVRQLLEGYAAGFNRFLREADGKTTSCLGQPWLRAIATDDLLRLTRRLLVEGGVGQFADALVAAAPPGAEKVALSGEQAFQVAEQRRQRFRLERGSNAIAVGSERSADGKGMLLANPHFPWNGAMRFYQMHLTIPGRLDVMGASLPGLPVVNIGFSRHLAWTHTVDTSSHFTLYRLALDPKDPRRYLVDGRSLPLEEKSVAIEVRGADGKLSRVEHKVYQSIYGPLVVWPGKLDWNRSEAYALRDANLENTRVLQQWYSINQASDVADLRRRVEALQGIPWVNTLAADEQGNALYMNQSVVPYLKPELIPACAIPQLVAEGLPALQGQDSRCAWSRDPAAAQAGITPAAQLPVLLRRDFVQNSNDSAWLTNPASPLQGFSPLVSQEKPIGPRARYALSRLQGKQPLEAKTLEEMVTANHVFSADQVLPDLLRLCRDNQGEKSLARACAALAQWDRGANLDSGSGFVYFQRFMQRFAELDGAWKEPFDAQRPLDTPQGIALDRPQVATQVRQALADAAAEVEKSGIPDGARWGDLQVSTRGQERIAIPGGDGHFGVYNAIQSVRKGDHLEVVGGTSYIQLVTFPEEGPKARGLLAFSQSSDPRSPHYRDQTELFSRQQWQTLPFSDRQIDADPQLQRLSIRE

[13] = target: T5, Endoribonuclease toxin MazF (Escherichia coli K-12, UniProt P0AE70); assay: MazF toxin RNase activators, dose response, biochemical, fluorescence, single-stranded RNA substrate, uHTS hits (AID 588481); format: functional
T5 sequence (P0AE70 whole entry): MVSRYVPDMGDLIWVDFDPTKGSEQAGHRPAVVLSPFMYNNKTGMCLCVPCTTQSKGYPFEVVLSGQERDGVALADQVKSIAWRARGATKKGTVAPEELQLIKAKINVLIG

[14] = tested on: HeLa; assay: HeLa cell cytotoxicity, dose response, cytotoxicity control, 48 h, plate reader, cherry-picks (AID 504942); format: functional, cell-based; details: Homo sapiens
[15] = target: T5, Endoribonuclease toxin MazF; assay: fluorescent RNA oligo signal without MazF, dose response, counter-screen for MazEF activator project, biochemical, fluorescence, single-stranded RNase substrate (AID 588502); format: functional
[16] = target: T6, Protein skinhead-1 (Caenorhabditis elegans, UniProt P34707); format: functional
T6 sequence (P34707 whole entry): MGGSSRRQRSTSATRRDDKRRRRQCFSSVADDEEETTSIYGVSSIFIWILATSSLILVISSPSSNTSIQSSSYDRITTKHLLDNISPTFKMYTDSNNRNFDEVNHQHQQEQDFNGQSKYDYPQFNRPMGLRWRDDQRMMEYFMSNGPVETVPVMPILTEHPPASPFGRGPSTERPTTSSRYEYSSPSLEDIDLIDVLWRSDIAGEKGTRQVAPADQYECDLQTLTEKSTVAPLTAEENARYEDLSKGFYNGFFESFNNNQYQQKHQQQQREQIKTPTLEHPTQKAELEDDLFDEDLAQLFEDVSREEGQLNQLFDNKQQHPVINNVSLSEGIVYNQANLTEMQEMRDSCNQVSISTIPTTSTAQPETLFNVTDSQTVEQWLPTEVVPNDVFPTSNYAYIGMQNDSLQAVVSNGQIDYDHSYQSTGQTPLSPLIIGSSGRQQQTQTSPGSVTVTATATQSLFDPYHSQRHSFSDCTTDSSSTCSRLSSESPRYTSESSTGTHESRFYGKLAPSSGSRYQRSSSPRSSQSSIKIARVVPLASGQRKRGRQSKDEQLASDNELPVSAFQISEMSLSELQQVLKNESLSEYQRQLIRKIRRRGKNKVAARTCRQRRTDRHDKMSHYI

[17] = Luminescence-based cell-based high throughput dose response assay to identify activators of the DAF-12 from the parasite S. stercoralis (ssDAF-12).; format: functional
[18] = target: T7, Oxysterols receptor LXR-beta (Homo sapiens, UniProt P55055); assay: LXR agonists, Gal4 luciferase reporter, dose response, counter-screen for ssDAF-12 agonist project, cell-based, luminescence, HEK293, S. stercoralis campaign (AID 720737); format: functional; details: read-out: IC50 (the source's name)
T7 sequence (P55055 whole entry): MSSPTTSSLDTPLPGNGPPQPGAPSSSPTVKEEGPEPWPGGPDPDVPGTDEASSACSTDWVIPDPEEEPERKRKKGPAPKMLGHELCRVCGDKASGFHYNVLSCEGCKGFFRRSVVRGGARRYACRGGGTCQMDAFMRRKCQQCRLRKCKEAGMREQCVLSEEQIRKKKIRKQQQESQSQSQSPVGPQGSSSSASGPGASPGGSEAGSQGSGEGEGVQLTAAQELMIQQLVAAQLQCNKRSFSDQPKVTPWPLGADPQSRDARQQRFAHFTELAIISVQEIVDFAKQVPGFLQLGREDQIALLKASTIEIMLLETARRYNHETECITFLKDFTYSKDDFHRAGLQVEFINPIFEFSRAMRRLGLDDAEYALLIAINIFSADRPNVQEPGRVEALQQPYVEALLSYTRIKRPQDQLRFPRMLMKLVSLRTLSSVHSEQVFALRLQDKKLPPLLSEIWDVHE

SMILES: COC(=O)c1cccc(Nc2c3c(nc4ccccc24)CCC3)c1
- EC50 [1]: 28.4 µM (active)
- EC50 [2]: 18.2 µM (active)
- EC50 [3]: > 150 µM (inconclusive)
- EC50 [4]: 19.2 µM (active)
- EC50 [5]: 2.11 µM (active)
- EC50 [6]: > 133 µM (inactive)

SMILES: Cc1cccc(/C=C/c2nc3ccccc3c(=O)n2Cc2ccccc2)c1
- IC50 [7]: > 80 µM (inactive)
- IC50 [8]: > 80 µM (inactive)

SMILES: Cc1ccc(C)c(NC(=O)c2ccc([N+](=O)[O-])o2)c1
- IC50 [9]: > 80 µM (inactive)
- IC50 [10]: 14.1 µM (active)
- IC50 [11]: 46.6 µM (inactive)

SMILES: N#C/C(=C/c1ccco1)c1nc2ccccc2s1
- AC50 [12]: 12.5 µM (active)
- EC50 [13]: 23.7 µM (inactive)
- AC50 [14]: 53.7 µM (active)
- EC50 [15]: 54.8 µM (inactive)
- IC50 [16]: > 100 µM (inactive)
- IC50 [17]: > 67.5 µM (inactive)
- EC50 [18]: > 67.5 µM (inactive)

— ChEMBL document CHEMBL1201862, “PubChem BioAssay data set” (2004)
